We go through ten molecules from US11129835B2, “Methods and compositions for the inhibition of PIN1” (Beth Israel Deaconess Medical Center, Inc., priority 2012, dated 2021).

The structures appear in SMILES notation.

The term IC50 denotes the concentration that gives 50% inhibition. Lower therefore signals greater potency.

Assay [1] concerns the target T1, Pin1 (Homo sapiens, UniProt Q13526). The assay is described as follows: confirmatory Pin1 fluorescence polarization competition assay (Alexa488 reconfirmed).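 As to all read-outs here: Pin1 competition with a HiFluor488-labelled peptide probe, read as fluorescence polarization after 10 min at room temperature.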 As to conditions: for Emax: read-out: Alexa488 Reconfirmed Efficacy. (In general: Polarisation of emitted light reports the rotation of a fluorescent probe.)
Experimental: (§1) The goal of this assay was to identify small-molecule inhibitors of Pin1 using a fluorescence polarization competition assay (FIG. 1). […] Candidate compounds were screened in a concentration-titration series (e.g., 57 μM to 0.7 nM).
(§2) Pin1 (0.6 μM) was dispensed into black, solid 1536-well plates (32 rows by 48 columns) at 2 μL/well in Pin1 buffer (10 mM HEPES (pH 7.5), 10 mM NaCl, 0.01% Tween20, 1 mM DTT, and 1% glycerol). Next, 23 nL of compound or DMSO was delivered to each well using a pin tool (tip wash sequence: DMSO, IPA, MeOH, 3 s vacuum dry). Two μL of Pin1-1b-HiFluor488 peptide in buffer (10 mM HEPES (pH 7.5), 10 mM NaCl, 0.01% Tween20, 1 mM DTT, and 1% glycerol, 0.02 μM Pin1-1b-HiFluor488) or DMSO was then dispensed to each well using a pin tool (tip wash sequence: DMSO, IPA, MeOH, 3 s vacuum dry), and plates were incubated at room temperature for 10 min (Table 2). Each plate included controls with no candidate inhibitory compound (32 wells), with unlabeled Pin1-1c titration (3.5 mM to 0.020 mM in a 1:2 dilution series including 2 replicates per concentration; 32 wells), and without Pin1 (64 wells).
(§3) The fluorescence polarization signal of each well was measured on a ViewLux® plate reader using a 480/20 nm excitation filter and 540/25 nm S and P emission filters with a 20 second exposure with 2× binning (Table 2). Percent inhibitory activity was determined from corrected fluorescence polarization values.
(§4) Concentration-response curves were fitted to the signals arising from the resulting fluorescence polarization. The concentration-effect curves were then classified based on curve quality (r^2), response magnitude, and degree of measured activity. Compounds were subsequently categorized based on their curve class.
Assay [2] concerns the target T1, Pin1. The assay is described as follows: Pin1 fluorescence polarization competition assay, primary qHTS (HiFluor-488 / Alexa488 probe).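 Also: Pin1 protein with fluorescent peptide probe, compound displacement read by fluorescence polarization, percent inhibition derived from corrected polarization values, concentration-response curves in 1536-well format.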
Experimental: as §1, §2, §3, §4
Curves showing change polarized fluorescence may be categorized into 5 classes. Class 1 includes complete curves, having 2 asymptotes and an r^2 value of ≥0.9, with an efficacy of either >80% (class 1.1) or ≤80% (class 1.2). Class 1 curves may also be classified as noisy curves when efficacy is >80% and r^2<0.9 (class 1.3) or when efficacy is ≤80% and r^2<0.9 (class 1.4). Class 2 includes incomplete curves having 1 asymptote and an r^2 value of either >0.9 (subclass a) or <0.9 (subclass b), with an efficacy of either >80% (class 2.1) or ≤80% (class 2.2). Class 2 curves may also be classified as noisy curves when efficacy is >80% and r^2<0.9 (class 2.3) or when efficacy is ≤80% and r^2<0.9 (class 2.4). Class 3 includes single point activity curves having 1 asymptote and an efficacy >3 SD from the mean activity of the sample field at the highest tested concentration. […] A fifth class captures any curves not otherwise classified (FIG. 4).
Assay [3] has as its target T1, Pin1. In words: Pin1 fluorescence polarization competition assay with Tamra-probe (secondary). As to conditions: for Tamra Secondary Curve Class: Tamra-probe; for Emax: read-out: Tamra Secondary Efficacy.
Experimental: An assay was developed for the identification of inhibitors of Pin1. […] Candidate compounds were screened in a concentration-titration series (e.g., 57 μM to 0.7 nM).
as §2, §3, §4
A further secondary assessment was accomplished by replacing the HiFluor-488-labeled probe with Tamra-probe, a red-shifted fluorophore.
[4] abbreviates: Alexa488 Primary Potency, primary qHTS.
Where [5] appears, read: Average HTS Potency, average over Alexa488 primary, Alexa488 reconfirmed and Tamra secondary assays.
The mark [6] stands for this setting: read-out: Alexa488 Primary Efficacy.

T1 sequence (Q13526 whole entry): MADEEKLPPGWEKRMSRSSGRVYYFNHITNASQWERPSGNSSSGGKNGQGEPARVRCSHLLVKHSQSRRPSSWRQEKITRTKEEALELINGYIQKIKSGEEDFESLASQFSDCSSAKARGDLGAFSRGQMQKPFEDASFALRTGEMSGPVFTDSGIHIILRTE

For the molecule `COc1cc(/C=C2\SC(=O)N(c3ccc(Cl)cc3)C2=O)cc([N+](=O)[O-])c1O` [Compound 38], the IC50 stood at 6 µM on Pin1 [1], 19 µM on Pin1 [2] (setting [4]) and 13 µM at Pin1 [2] (setting [5]). The results for the Emax on Pin1 [1], on Pin1 [2] (setting [6]) and on Pin1 [2] (read-out: Average HTS Efficacy) were 98%, 103% and 101%, respectively.

Take `COc1ccc(NC(=O)CN(C)C(O)c2cc(-c3ccco3)nc3ccccc23)cc1` (centres unmarked) [Compound 39]: the IC50 was 21 µM on Pin1 [3], 14 µM on Pin1 [2] (setting [4]) and 17 µM on Pin1 [2] (setting [5]). The “Tamra Secondary Curve Class” value at Pin1 [3] turned out to be 3.0. In addition, the Emax at Pin1 [3] worked out at 53%; at Pin1 [2] (setting [6]), 28%; at Pin1 [2] (read-out: Average HTS Efficacy), 41%. Moreover, the “Alexa488 Primary Curve Class” value at Pin1 [2] (primary qHTS) is listed as 2.2 (≤80% (class 2.2)).

As for `Cc1cccc(N(Cc2cc(=O)[nH]c3ccccc23)C(=O)CCl)c1` [Compound 10], the half-maximal inhibitory concentration (IC50) at Pin1 [1] is 4.8 µM; at Pin1 [2] (setting [4]), 22.4 µM; at Pin1 [2] (setting [5]), 13.6 µM. Moreover, the figures for the Emax at Pin1 [1], at Pin1 [2] (setting [6]) and at Pin1 [2] (read-out: Average HTS Efficacy) were 82.9%, 81.3% and 82.1%, respectively. Moreover, on Pin1 [2] (primary qHTS), the “Alexa488 Primary Curve Class” value is 2.2 (≤80% (class 2.2)).

Take `O=C(c1cccs1)c1no[n+]([O-])c1C(=O)c1cccs1` [Compound 28]: the IC50 on Pin1 [1] was determined as 0.08 µM; at Pin1 [2] (setting [4]), 1.69 µM; on Pin1 [2] (setting [5]) it was 0.89 µM. The values for the Emax on Pin1 [1], at Pin1 [2] (setting [6]) and on Pin1 [2] (read-out: Average HTS Efficacy) were 99%, 89% and 94%, respectively.

In the case of `CCOc1cc(Br)cc(C(c2c(C(=O)O)[nH]c3ccccc23)c2c(C(=O)O)[nH]c3ccccc23)c1O` [Compound 45], the IC50 on Pin1 [3] stood at 38 µM; on Pin1 [2] (setting [4]) it was 22 µM; on Pin1 [2] (setting [5]), 30 µM. In addition, on Pin1 [3], the “Tamra Secondary Curve Class” value amounted to 3.0. The values for the Emax on Pin1 [3], at Pin1 [2] (setting [6]) and on Pin1 [2] (read-out: Average HTS Efficacy) were 71%, 72% and 71%, respectively.

In the case of `Cc1ccc(NC(=O)CN(C)C(=O)c2cccc(-n3cccc3)c2)cc1` [Compound 25], the concentration for half-maximal inhibition (IC50) stood at 30 µM at Pin1 [3], 38 µM at Pin1 [2] (setting [4]) and 34 µM on Pin1 [2] (setting [5]). Also, at Pin1 [3], the “Tamra Secondary Curve Class” value was found to be 3.0. The Emax on Pin1 [3] is 73%; at Pin1 [2] (setting [6]) it was 22%; at Pin1 [2] (read-out: Average HTS Efficacy), 47%. Further, at Pin1 [2] (primary qHTS), the “Alexa488 Primary Curve Class” value is listed as 2.2 (≤80% (class 2.2)).

`O=C(O)C1Nc2c(O)cccc2C2C=CCC12` (centres unmarked) [Compound 4]: the concentration for half-maximal inhibition (IC50) on Pin1 [3] was found to be 11 µM; on Pin1 [2] (setting [4]), 3 µM; at Pin1 [2] (setting [5]) it was 7 µM. The “Tamra Secondary Curve Class” value on Pin1 [3] is 2.2 (≤80% (class 2.2)). In addition, the results for the Emax on Pin1 [3], on Pin1 [2] (setting [6]) and on Pin1 [2] (read-out: Average HTS Efficacy) were 37%, 23% and 30%, respectively. Besides, the “Alexa488 Primary Curve Class” value at Pin1 [2] (primary qHTS) is 1.2 (≤80% (class 1.2)).

With `CC(=O)Nc1cc(=O)c2[nH]o[nH]c=2c1=O` [Compound 50], the IC50 was found to be 7 µM on Pin1 [1], 1 µM on Pin1 [2] (setting [4]) and 4 µM at Pin1 [2] (setting [5]). Further, the figures for the Emax on Pin1 [1], at Pin1 [2] (setting [6]) and at Pin1 [2] (read-out: Average HTS Efficacy) were 98%, 93% and 95%, respectively.

With `Cn1nc(-c2ccncc2)nc2c(=O)n(C)c(=O)nc1-2` [Compound 49], the results for the IC50 at Pin1 [1], on Pin1 [2] (setting [4]) and at Pin1 [2] (setting [5]) were 1 µM, 50 µM and 25 µM, respectively. In addition, the Emax on Pin1 [1] amounted to 70%; on Pin1 [2] (setting [6]), 27%; at Pin1 [2] (read-out: Average HTS Efficacy), 48%. Also, the “Alexa488 Primary Curve Class” value on Pin1 [2] (primary qHTS) was 1.2 (≤80% (class 1.2)).

With `O=C(O)c1[nH]c2ccccc2c1C(c1cc(Br)ccc1O)c1c(C(=O)O)[nH]c2ccccc12` [Compound 43], the IC50 at Pin1 [3] worked out at 24 µM; at Pin1 [2] (setting [4]) it was 16 µM; on Pin1 [2] (setting [5]), 20 µM. Further, the “Tamra Secondary Curve Class” value on Pin1 [3] came out at 3.0. For the same molecule, the Emax stood at 71% at Pin1 [3], 63% at Pin1 [2] (setting [6]) and 67% on Pin1 [2] (read-out: Average HTS Efficacy). Further, the “Alexa488 Primary Curve Class” value at Pin1 [2] (primary qHTS) was 1.2 (≤80% (class 1.2)).
